We go through four compounds from ChEMBL document CHEMBL5385944, “Hydrazyl hydroxycoumarins as new potential conquerors towards Pseudomonas aeruginosa” (Bioorg Med Chem Lett, 2024).

Molecules are shown by their SMILES. Values after ≈ are worked out from the molar mass of the structure shown. Active and inactive are the calls of the source. The rule behind the calls is not given here. Where only a bound is given, the exact number is not on record here.

The test system of data set [1] is Staphylococcus aureus. As to the kind of experiment: Antibacterial activity against methicillin resistant Staphylococcus aureus assessed as reduction in bacterial growth by CLSI protocol based method. The format is functional.
Data set [2] relates to Staphylococcus aureus. As to the kind of experiment: Antibacterial activity against methicillin resistant Staphylococcus aureus 43300 assessed as reduction in bacterial growth by CLSI protocol based method. Format: functional.
The test system of another data set is Enterococcus faecalis. Briefly: Antibacterial activity against Enterococcus faecalis assessed as reduction in bacterial growth by CLSI protocol based method. The format is functional.
For data set [3], the system named is Staphylococcus aureus. As to the kind of experiment: Antibacterial activity against Staphylococcus aureus ATCC 25923 assessed as reduction in bacterial growth by CLSI protocol based method. Format: functional.
Data set [4] has as its system Staphylococcus aureus. Briefly: Antibacterial activity against Staphylococcus aureus ATCC 29213 assessed as reduction in bacterial growth by CLSI protocol based method. The format is functional.
The test system of a further data set is Klebsiella pneumoniae. Briefly: Antibacterial activity against Klebsiella pneumoniae assessed as reduction in bacterial growth by CLSI protocol based method. Format: functional.
Data set [5] concerns Pseudomonas aeruginosa. As to the kind of experiment: Antibacterial activity against Pseudomonas aeruginosa assessed as reduction in bacterial growth by CLSI protocol based method. Format: functional.
Data set [6] has as its system Pseudomonas aeruginosa. As to the kind of experiment: Antibacterial activity against Pseudomonas aeruginosa ATCC 27853 assessed as reduction in bacterial growth by CLSI protocol based method. The format is functional.
Data set [7] has as its system Pseudomonas aeruginosa. Briefly: Antibacterial activity against Pseudomonas aeruginosa ATCC 10104 assessed as reduction in bacterial growth by CLSI protocol based method. The format is functional.
Data set [8] has as its system Pseudomonas aeruginosa. Briefly: Antibacterial activity against Pseudomonas aeruginosa ATCC 90027 assessed as reduction in bacterial growth by CLSI protocol based method. The format is functional.
The subject of another data set is Acinetobacter baumannii. Briefly: Antibacterial activity against Acinetobacter baumannii assessed as reduction in bacterial growth by CLSI protocol based method. The format is functional.
A further data set relates to Escherichia coli. Briefly: Antibacterial activity against Escherichia coli ATCC 25922 assessed as reduction in bacterial growth by CLSI protocol based method. Format: functional.
Data set [9] is described as follows: Induction of drug resistance in Pseudomonas aeruginosa ATCC 27853 measured after 12 passages. The format is functional.
For data set [10], the system named is Pseudomonas aeruginosa. As to the kind of experiment: Induction of drug resistance in Pseudomonas aeruginosa ATCC 27853 measured within 17 passages. Format: functional.
Data set [11] can be described thus: Hemolytic activity in human RBC assessed as hemolysis at 256 times MIC measured after 8 hrs relative to control. The following applies: red blood cells (erythrocytes), read-out: Activity. The format is toxicity, cell-based, Erythrocyte.
The next data set has as its system Erythrocyte. Briefly: Hemolytic activity against human RBC assessed as effect on cell morphology at 32 times MIC measured after 8 hrs by fluorescence microscopic analysis. Format: toxicity, cell-based.
Data set [12] deals with NCM460. As to the kind of experiment: Cytotoxicity against human NCM460 cells assessed as reduction in cell viability at 25 ug/ml measured after 24 hrs by CCK-8 method relative to control. The format is toxicity, cell-based. The following applies: ncm460, 24 h, at 25 µg/mL. In general terms: Tetrazolium dyes change colour on reduction, which living cells bring about.
Data set [13] deals with NCM460. Briefly: Cytotoxicity against human NCM460 cells assessed as effect on cell surface damage at 25 ug/ml measured after 24 hrs by microscope based analysis. The format is toxicity. Conditions: ncm460, 24 h, dose 25 µg/ml.
In data set [14] the test system is Cell membrane. As to the kind of experiment: Disruption of outer membrane integrity in Pseudomonas aeruginosa ATCC 27853 assessed as increase in fluorescence intensity at 4 to 8 times MIC. The format is subcellular. The following applies: time <= 80.0 min, TDE = time-dependent effect.
Data set [15] concerns Cell membrane. As to the kind of experiment: Disruption of outer membrane integrity in Pseudomonas aeruginosa ATCC 27853 assessed as increase in fluorescence intensity measured after 8 hrs. Format: subcellular.
For data set [16], the system named is Cell membrane. Briefly: Disruption of inner membrane integrity in Pseudomonas aeruginosa ATCC 27853 assessed as increase in fluorescence intensity at 4 to 8 times MIC. The format is subcellular. Conditions: time <= 12.0 min, TDE = time-dependent effect.
In data set [17] the test system is Cell membrane. As to the kind of experiment: Disruption of inner membrane integrity in Pseudomonas aeruginosa ATCC 27853 assessed as increase in fluorescence intensity measured after 8 hrs. Format: subcellular.
The subject of data set [18] is Cell membrane. Briefly: Disruption of inner membrane integrity in Pseudomonas aeruginosa ATCC 27853 assessed as increase in red fluorescence intensity at 8 times MIC measured after 10 to 40 mins by propidium iodide staining based analysis. Conditions: time 10-40 min. The format is subcellular.
Data set [19] deals with Cell membrane. As to the kind of experiment: Disruption of cell membrane integrity in Pseudomonas aeruginosa ATCC 27853 assessed as increase in protein leakage by Bradford assay. The format is subcellular.
For a further data set, the system named is Calf thymus DNA. Briefly: Binding affinity to calf thymus DNA at upto 18 micromol/ml by fluorescence spectroscopic method. Format: nucleic-acid assay. The following applies: Bos taurus; dose <= 18.0 µmol/ml.

Usually MIC stands for the lowest concentration that inhibits growth of the organism. As to `CCn1cc(C(=O)O)c(=O)c2cc(F)c(N3CCNCC3)cc21` [NORFLOXACIN], the MIC was found to be 4 µg/mL (≈ 12.5 µM) with Staphylococcus aureus [1]; 8 µg/mL (≈ 25.1 µM) in the data set with Staphylococcus aureus [2]; 4 µg/mL (≈ 12.5 µM) in the data set with Enterococcus faecalis; 2 µg/mL (≈ 6.26 µM) in the data set with Staphylococcus aureus [3]; 2 µg/mL (≈ 6.26 µM) with Staphylococcus aureus [4]; 4 µg/mL (≈ 12.5 µM) in the data set on Klebsiella pneumoniae. Also, the MIC in the data set with Pseudomonas aeruginosa [5] worked out at 4 µg/mL (≈ 12.5 µM); in the data set on Pseudomonas aeruginosa [6], 4 µg/mL (≈ 12.5 µM); in the data set on Pseudomonas aeruginosa [7] it was 5 µg/mL (≈ 15.7 µM); in the data set on Pseudomonas aeruginosa [8] it was 2 µg/mL (≈ 6.26 µM); in the data set with Acinetobacter baumannii, 2 µg/mL (≈ 6.26 µM); in the data set with Escherichia coli it was 4 µg/mL (≈ 12.5 µM). Further, the minimum inhibitory concentration (MIC) in data set [9] amounted to 128 µg/mL (≈ 401 µM).
`O=C(N/N=C/c1c(O)ccc2ccc(=O)oc12)c1ccncc1`: the MIC with Staphylococcus aureus [1] was 4 µg/mL (≈ 12.9 µM); with Staphylococcus aureus [2], 1 µg/mL (≈ 3.23 µM); in the data set with Enterococcus faecalis, 8 µg/mL (≈ 25.9 µM); in the data set on Staphylococcus aureus [3] it was 16 µg/mL (≈ 51.7 µM); in the data set on Staphylococcus aureus [4] it was 8 µg/mL (≈ 25.9 µM); with Klebsiella pneumoniae, 2 µg/mL (≈ 6.47 µM). The MIC came to 8 µg/mL (≈ 25.9 µM) in the data set with Pseudomonas aeruginosa [5]; 0.5 µg/mL (≈ 1.62 µM) with Pseudomonas aeruginosa [6]; 16 µg/mL (≈ 51.7 µM) with Pseudomonas aeruginosa [7]; 32 µg/mL (≈ 103 µM) in the data set with Pseudomonas aeruginosa [8]; 1 µg/mL (≈ 3.23 µM) with Acinetobacter baumannii; 8 µg/mL (≈ 25.9 µM) with Escherichia coli. Also, the outcome in the data set on Pseudomonas aeruginosa [10], in the data set on Cell membrane [18] and with Calf thymus DNA was Active. Besides, the hemolysis at 8 h, 256 times MIC in data set [11] was less than 4%. The Activity result is “Non-Toxic” in the data set with Erythrocyte; greater than 80% in the data set with NCM460 [12]; “Non-Toxic” in the data set with NCM460 [13]; “Tde” in the data set with Cell membrane [14]; “Dose-Dependent Effect” in the data set with Cell membrane [15]; “Tde” with Cell membrane [16]. Besides, the Activity entry in the data set on Cell membrane [17] and in the data set on Cell membrane [19] was “Dose-Dependent Effect” in each case.
Take `Cc1ncc([N+](=O)[O-])n1CC(=O)N/N=C/c1c(O)ccc2ccc(=O)oc12`: the MIC with Staphylococcus aureus [1] is 256 µg/mL (≈ 689 µM); in the data set on Staphylococcus aureus [2] it was 128 µg/mL (≈ 345 µM); in the data set with Enterococcus faecalis it was 32 µg/mL (≈ 86.2 µM); in the data set with Staphylococcus aureus [3] it was 4 µg/mL (≈ 10.8 µM); with Staphylococcus aureus [4], 256 µg/mL (≈ 689 µM); in the data set on Klebsiella pneumoniae it was 256 µg/mL (≈ 689 µM). In addition, the MIC in the data set with Pseudomonas aeruginosa [5] was found to be 256 µg/mL (≈ 689 µM); in the data set on Pseudomonas aeruginosa [6], 8 µg/mL (≈ 21.5 µM); in the data set with Pseudomonas aeruginosa [7], 64 µg/mL (≈ 172 µM); in the data set on Pseudomonas aeruginosa [8] it was 32 µg/mL (≈ 86.2 µM); in the data set on Acinetobacter baumannii, 256 µg/mL (≈ 689 µM); with Escherichia coli, 256 µg/mL (≈ 689 µM).
Consider `Cc1ccc(S(=O)(=O)N/N=C/c2c(O)ccc3ccc(=O)oc23)cc1`, for which the minimum inhibitory concentration (MIC) is 512 µg/mL (≈ 1430 µM) with Staphylococcus aureus [1]; 512 µg/mL (≈ 1430 µM) in the data set with Staphylococcus aureus [2]; 512 µg/mL (≈ 1430 µM) in the data set with Enterococcus faecalis; 512 µg/mL (≈ 1430 µM) with Staphylococcus aureus [3]; 256 µg/mL (≈ 714 µM) in the data set with Staphylococcus aureus [4]; 512 µg/mL (≈ 1430 µM) in the data set on Klebsiella pneumoniae. Further, the minimum inhibitory concentration (MIC) was 512 µg/mL (≈ 1430 µM) in the data set with Pseudomonas aeruginosa [5]; 512 µg/mL (≈ 1430 µM) with Pseudomonas aeruginosa [6]; 512 µg/mL (≈ 1430 µM) in the data set with Pseudomonas aeruginosa [7]; 512 µg/mL (≈ 1430 µM) with Pseudomonas aeruginosa [8]; 512 µg/mL (≈ 1430 µM) in the data set with Acinetobacter baumannii; 256 µg/mL (≈ 714 µM) in the data set with Escherichia coli.
